# According to patent publication US4202891A, “15-Oxygenated sterol compounds and the use of such compounds to inhibit the biosynthesis of sterols” (priority 1977, dated 1980):
# Key:
# serum cholesterol = assay: Effect on serum cholesterol levels in rats, daily subcutaneous injection (Examples 41, 42); type: in vivo, rat (male, Sprague-Dawley); settings: day 3
# Experimental: Male rats of the Sprague-Dawley strain were fed Purina rat chow ad libidum. The rats were maintained on a light (7 A.M.-6 P.M.) -dark (6 P.M.-7 A.M.) cycle throughout the study and for a period of at least 4 days prior to the initiation of the study.
# 3β-Hexadecanoyloxy-5α-cholest-8(14)-en-15-one (5 mg; dissolved in 0.25 ml of triolein), hereafter referred to as the "palmitate ester", or 3β-hemisuccinoyloxy-5α-cholest-8(14)-en-15-one (5 mg; suspended in 0.25 ml of triolein through the use of a tight-fitting all-glass homogenizer), hereafter referred to as the "hemisuccinate ester", were administered subcutaneously once a day at about 12 P.M. to each of eight and six rats, respectively. Control animals (8) received daily injections of triolein (0.25 ml).
# Blood samples were taken from the rats periodically and the serum cholesterol concentrations measured, in duplicate, by the method of Abell et al., J. Biol. Chem., Vol. 195, pp. 357-366 ([…]).
# Following generally the procedure described in Example 41, 3β-Ethoxy-14α-ethyl-5α-cholest-7-en-15-one (5 mg) in triolein (0.25 ml) was administered subcutaneously once a day to each of eight rats. Control animals (8) received daily injections of triolein (0.25 ml).
# Similarly, 5α-cholest-8(14)-en-3β-ol-15-one (2mg) in (0.2 ml) olive oil or 5.0 mg in 0.5 ml of olive oil) was administered subcutaneously once a day to each of a group of rats. The 2 mg dose was administered to 12 rats, while a like number of rats received daily injections of 0.2 ml olive oil. 5 mg doses were administered to each of 6 rats, while 6 control animals received daily injections of 0.5 ml olive oil. The rats used in this study initially weighed between 110 and 190 grams.
# HMG-CoA reductase [1] = assay: Reduction of the activity of HMG-CoA reductase in L cell cultures; type: cell-based, mouse; settings: read-out: Concentrations Required for 50% Reduction of the Activity of HMG-CoA Reductase
# Procedure, shortened: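 Mouse L cells (NCTC clone 929 fibroblast subline) grown in serum-free chemically defined medium were incubated 5 h with 15-oxygenated sterols, then harvested for microsomal HMG-CoA reductase activity. Value is the sterol concentration reducing reductase activity by 50%.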
# HMG-CoA reductase [2] = assay: Reduction of the activity of HMG-CoA reductase in primary cultures of liver cells; type: cell-based, mouse; settings: read-out: Concentrations Required for 50% Reduction of the Activity of HMG-CoA Reductase
# Experimental: The primary liver cell cultures were prepared from 16-day-old (C57BL/6J fetuses and grown in chemically defined medium (serum-free) as described in the above cited publications. The L cells, a subline of NCTC clone 929 mouse fibroblasts, were grown in chemically defined medium (serum-free) as described in the publications. These L cells are transformed fibroblasts which are regarded as malignant since they will grow as tumors if injected into the mouse strain from which they were initially obtained.
# The preparation of steroid-containing media, procedures for assays of the conversion of [1-^14 C]acetate into digitonin-precipitable sterols, fatty acids, and CO2 and methods for the measurement of DNA, protein, and HMG-CoA reductase were as described in the published articles. L cell cultures were preincubated with the 15-oxygenated sterols and their derivatives for 4 hours, then [1-^14 C]acetate was added at a concentration of 4 μmoles per ml (4 μCi per ml); or the L cell cultures were incubated for 5 hours with the 15-oxygenated sterols before they were harvested for determination of microsomal HMG-CoA reductase activity.
# Conditions for incubating the 15-oxygenated sterols or their derivatives with liver cell cultures were similar to those described for L cell cultures except that the cultures were incubated with the test compounds for 12 hours before labeled acetate was added or before they were harvested for enzyme assay.
# A number of the 15-oxygenated sterols have also been tested with respect to their effects on the activity and/or levels of the enzyme HMG-CoA reductase (3-hydroxy-3-methylglutaryl coenzyme A reductase) in the L cells and in the liver cells. As noted previously, this enzyme catalyzes the reduction of 3-hydroxy-3-methylglutaryl coenzyme A to yield mevalonic acid, an essential intermediate in the biosynthesis of sterols and of a number of other essential compounds in cells.
# Using the technique described by Kandutsch and Chen in the article cited in the previous example, the concentrations of various 15-oxygenated sterols required to reduce the levels of activity of HMG-CoA reductase by 50% was determined in the cells of the L cells in culture and of the primary cultures of liver cells.
# [3] = Body weight of mice, ketone in diet (Example 47); type: in vivo, mouse; settings: 0.2% in diet; eight days; 7-week-old mice
# Experimental: […] Five mice were fed the ketone at a level of 0.2% in a diet which was essentially free of animal sterols for eight days. Five control pair-fed mice were fed the same diet to which the ketone was not added. The mean plasma cholesterol concentration in the ketone group after the eight day experiment was 35.8(±3.6, standard error of mean) mg per 100 ml of plasma while the corresponding value for the pair-fed group was 114.4 (±3.4, standard error of mean). It should be noted that very closely matched pairfeeding is difficult to perform in mice of this age due to the small amounts of food which are consumed and which must be accurately determined in such experiments.
# [4] = 2 mg s.c. once a day in 0.2 ml olive oil
# [5] = 5 mg s.c. once a day in 0.5 ml olive oil
structure (smiles),measurement,setting,value
"CC(C)CCC[C@@H](C)[C@H]1CC(=O)C2=C3CC[C@H]4C[C@@H](O)CC[C@]4(C)[C@H]3CC[C@@]21C [5α-Cholest-8(14)-en-3β-ol-15-one, 5α-cholest-8(14)-en-3β-ol-15-one]",% Reduction (relative to olive oil-treated rats),serum cholesterol; [4],12%
same,Serum Cholesterol (Mean ± S.E.M.),serum cholesterol; [4],64.5 ± 2.5 mg per 100 ml
same,% Reduction (relative to olive oil-treated rats),serum cholesterol; [5],22%
same,Serum Cholesterol (Mean ± S.E.M.),serum cholesterol; [5],59.6 ± 2.2 mg per 100 ml
same,IC50,HMG-CoA reductase [1],0.3 µM
same,IC50,HMG-CoA reductase [2],4 µM
same,average decrease in body weight (standard error of mean),[3],5.9 g
